Assay results: patent US20140336267A1, “UTILIZATION OF THE FUNCTION OF RARE SUGAR AS PROMOTER FOR THE MIGRATION OF GLUCOKINASE FROM NUCLEUS TO CYTOPLASM” (NATIONAL UNIVERSITY CORPORATION KAGAWA UNIVERSITY, priority 2006, published 2014)
“Also recorded” adds a separate entry of the source.

Key:
glucokinase [1] = test: Intracellular transfer of hepatic glucokinase with hormones and various compounds (rat hepatocyte primary culture); format: cell-based; details: 25 mM D-glucose MEM
Method: Wistar rats (male, aged 5 to 8 weeks) were used. A primary culture of the rat hepatocyte was incubated for a certain period of time in a 25 mM D-glucose-containing MEM culture medium supplemented with hormones and various compounds. The hepatocytes were fixed with 4% para-formaldehyde, and stained by a fluorescence antibody method using an anti-glucokinase antibody. A fluorescent image obtained with a co-focus laser microscope was analyzed with the NIH Image to calculate the fluorescence intensity in the nucleus and the cytoplasm, which were defined as the glucokinase level in the nucleus and the cytoplasm.

glucokinase [2] = biological target: T1, glucokinase (Rattus norvegicus, UniProt P17712); test: Intracellular transfer of hepatic glucokinase with ketose (fluorescence antibody method, rat hepatocyte primary culture); format: cell-based
T1 construct: stained by a fluorescence antibody method using an anti-glucokinase antibody; endogenous in cells; host or cells: primary culture of hepatocytes from male Wistar rats
T1 sequence (P17712 1-465 isoform P17712-3): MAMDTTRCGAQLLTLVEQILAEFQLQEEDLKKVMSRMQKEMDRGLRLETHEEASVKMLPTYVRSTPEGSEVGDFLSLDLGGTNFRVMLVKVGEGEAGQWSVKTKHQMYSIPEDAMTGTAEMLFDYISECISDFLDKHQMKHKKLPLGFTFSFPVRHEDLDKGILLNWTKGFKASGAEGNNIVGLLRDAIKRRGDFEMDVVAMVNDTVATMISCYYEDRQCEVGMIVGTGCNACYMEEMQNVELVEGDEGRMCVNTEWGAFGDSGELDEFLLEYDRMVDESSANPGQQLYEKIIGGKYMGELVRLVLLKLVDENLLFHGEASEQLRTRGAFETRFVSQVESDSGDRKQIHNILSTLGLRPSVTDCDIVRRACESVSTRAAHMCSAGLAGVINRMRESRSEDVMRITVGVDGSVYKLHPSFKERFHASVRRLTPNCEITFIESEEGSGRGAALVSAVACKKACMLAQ
Method: Wistar rats (male, aged 5 to 8 weeks) were used. […] The hepatocytes were fixed with 4% para-formaldehyde, and stained by a fluorescence antibody method using an anti-glucokinase antibody. A fluorescent image obtained with a co-focus laser microscope was analyzed with the NIH Image to calculate the fluorescence intensity in the nucleus and the cytoplasm, which were defined as the glucokinase level in the nucleus and the cytoplasm. […] By the same method as described above, the glucokinase level in the intracellular nucleus and the cytoplasm was determined.

[3] = ketose added, MEM culture medium with 5 mM or 15 mM D-glucose

glucagon: hormone that transfers glucokinase from cytoplasm to nucleus
cytoplasmic glucokinase (glucokinase [1]; hormone or compound alone): cytoplasmic glucokinase activity was reduced

CCCC(=O)Nc1ncnc2c1ncn2[C@@H]1O[C@@H]2COP(=O)(O)O[C@H]2[C@H]1OC(=O)CCC [Bt2cAMP]
cytoplasmic glucokinase (glucokinase [1]; hormone or compound alone): cytoplasmic glucokinase activity was reduced

insulin: hormone that transfers glucokinase from nucleus to cytoplasm
cytoplasmic glucokinase (glucokinase [1]; hormone or compound alone): increase of cytoplasmic glucokinase

O=C(CO)[C@H](O)[C@@H](O)[C@H](O)CO [D-sorbose]
glucokinase transfer from nucleus to cytoplasm (glucokinase [2]; at any of the ketose concentrations): did not influence glucokinase transfer; also recorded: hardly influenced such glucokinase transfer

O=C(CO)[C@@H](O)[C@@H](O)[C@H](O)CO [D-tagatose]
glucokinase transfer from nucleus to cytoplasm (glucokinase [2]; ketose added up to 1 mM, any of the D-glucose concentrations): glucokinase transferred from nucleus to cytoplasm
glucokinase transfer from nucleus to cytoplasm (glucokinase [2]; [3]): glucokinase transferred from nucleus to cytoplasm
glucokinase transfer from nucleus to cytoplasm (glucokinase [2]; ketose concentration 10 mM or more): no change of the glucokinase transfer was observed; also recorded: no glucokinase transfer from nucleus to cytoplasm was observed

O=C(CO)[C@@H](O)[C@@H](O)[C@@H](O)CO [L-psicose]
glucokinase transfer from nucleus to cytoplasm (glucokinase [2]; [3]): glucokinase transferred from nucleus to cytoplasm

O=C(CO)[C@@H](O)[C@H](O)[C@@H](O)CO [L-sorbose]
glucokinase transfer from nucleus to cytoplasm (glucokinase [2]; [3]): glucokinase transferred from nucleus to cytoplasm as the L-sorbose concentration was raised

O=C(CO)[C@H](O)[C@H](O)[C@@H](O)CO [L-tagatose]
glucokinase transfer from nucleus to cytoplasm (glucokinase [2]; [3]): never influenced the glucokinase transfer

CCCCCCOC(=O)[C@]1(O)C[C@@H]2O[C@@]1(C)n1c3ccccc3c3c4c(c5c6ccccc6n2c5c31)C(=O)NC4 [KT-5720]
cytoplasmic glucokinase (glucokinase [1]; compound in the presence of glucagon): Almost no reduction of cytoplasmic glucokinase with glucagon was observed any more

O=C(CO)[C@H](O)[C@@H](O)[C@@H](O)CO [L-fructose]
glucokinase transfer from nucleus to cytoplasm (glucokinase [2]; ketose added at 20 mM or more, 5 mM or 15 mM D-glucose): glucokinase transfer from nucleus to cytoplasm was gradually reduced
glucokinase transfer from nucleus to cytoplasm (glucokinase [2]; [3]): glucokinase transferred from nucleus to cytoplasm

CC(C)Cn1c(=O)n(C)c(=O)c2[nH]cnc21 [IBMX]
cytoplasmic glucokinase (glucokinase [1]; hormone or compound alone): cytoplasmic glucokinase activity was reduced

COc1cccc(-c2cc(=O)c3ccccc3o2)c1N [PD-98059]
cytoplasmic glucokinase (glucokinase [1]; compound in the presence of insulin): such change could not be observed
